Values quoted from earlier work in patent US20130312498A1, “CARDIOVASCULAR DISEASE RISK ASSESSMENT AND TREATMENT BY STEROL AND/OR STANOL MARKERS” (FOUNDATION FOR HEALTH IMPROVEMENT AND TECHNOLOGY, priority 2012, published 2013).

Tests used:
[1] = molecular target: T1, NPC1L1/AP2-clathrin complex (Homo sapiens, UniProt Q9UHC9); details: typical effect, intestinal sterol absorption
T1 construct: from tissue; host or cells: intestinal epithelium (in vivo, patients)
T1 sequence (Q9UHC9 22-1359): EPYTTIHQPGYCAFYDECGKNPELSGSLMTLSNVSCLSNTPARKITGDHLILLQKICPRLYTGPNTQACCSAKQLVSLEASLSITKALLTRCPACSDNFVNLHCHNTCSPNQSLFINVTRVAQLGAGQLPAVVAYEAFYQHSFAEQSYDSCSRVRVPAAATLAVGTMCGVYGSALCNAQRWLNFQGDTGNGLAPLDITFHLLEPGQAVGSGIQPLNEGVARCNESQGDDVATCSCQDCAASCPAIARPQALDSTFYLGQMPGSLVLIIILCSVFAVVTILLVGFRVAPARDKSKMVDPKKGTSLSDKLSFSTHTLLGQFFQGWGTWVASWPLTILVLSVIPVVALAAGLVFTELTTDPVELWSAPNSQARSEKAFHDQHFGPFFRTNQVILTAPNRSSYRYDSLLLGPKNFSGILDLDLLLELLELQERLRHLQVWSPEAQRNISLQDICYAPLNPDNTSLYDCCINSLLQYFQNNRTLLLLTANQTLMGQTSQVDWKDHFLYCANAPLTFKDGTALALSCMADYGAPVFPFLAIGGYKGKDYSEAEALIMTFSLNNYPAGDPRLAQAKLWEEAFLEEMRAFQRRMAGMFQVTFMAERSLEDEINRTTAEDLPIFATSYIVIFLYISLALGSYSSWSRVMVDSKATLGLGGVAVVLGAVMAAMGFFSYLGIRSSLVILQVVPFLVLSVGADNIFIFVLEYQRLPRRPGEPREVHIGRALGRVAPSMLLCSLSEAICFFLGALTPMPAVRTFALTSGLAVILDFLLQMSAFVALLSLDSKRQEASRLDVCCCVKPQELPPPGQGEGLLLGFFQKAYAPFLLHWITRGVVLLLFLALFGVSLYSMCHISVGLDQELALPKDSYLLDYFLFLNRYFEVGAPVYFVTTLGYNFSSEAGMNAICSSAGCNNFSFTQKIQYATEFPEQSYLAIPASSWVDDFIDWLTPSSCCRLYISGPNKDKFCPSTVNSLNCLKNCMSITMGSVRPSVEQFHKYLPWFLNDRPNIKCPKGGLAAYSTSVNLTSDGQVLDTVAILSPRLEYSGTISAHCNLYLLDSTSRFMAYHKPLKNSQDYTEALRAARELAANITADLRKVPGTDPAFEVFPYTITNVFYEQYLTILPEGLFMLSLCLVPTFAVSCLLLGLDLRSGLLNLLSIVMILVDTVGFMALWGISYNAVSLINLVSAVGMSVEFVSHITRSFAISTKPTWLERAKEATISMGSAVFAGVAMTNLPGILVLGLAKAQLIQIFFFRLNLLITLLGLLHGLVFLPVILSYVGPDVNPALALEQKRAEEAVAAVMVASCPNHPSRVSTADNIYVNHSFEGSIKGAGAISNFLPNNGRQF

fatty acid absorption = details: in vivo

## O=C1[C@H](CC[C@H](O)c2ccc(F)cc2)[C@@H](c2ccc(O)cc2)N1c1ccc(F)cc1 [Ezetimibe]
[1]
  reduction of sterol absorption: about 50%
Fatty acid absorption
  effect on fatty acid absorption: no effect
